Experimental data from patent US8952024B2, “Herbicidal pyrimidone derivatives” (E I du Pont de Nemours and Company, priority 2009, dated 2015).

Assays:
Assay type in all cases: in vivo
[1] = system: blackgrass (Alopecurus myosuroides); experiment: Test B pre-/postemergence plant response
Outline: (§1)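 Ratings reflect visual comparison with untreated controls 13 to 15 days after application, from 0 (no effect) to 100 (complete control). Application was preemergence to seeded loam/sand soil or postemergence to 1- to 4-leaf plants, with compound in a non-phytotoxic, surfactant-containing solvent.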

kochia (Kochia scoparia) = experiment: Test B pre-/postemergence plant response
Outline: as §1

wild oat (Avena fatua) = experiment: Test B pre-/postemergence plant response
Outline: as §1

[2] = system: velvetleaf (Abutilon theophrasti); experiment: Test B pre-/postemergence plant response
Outline: as §1

[3] = system: cocklebur (Xanthium strumarium); experiment: Test B pre-/postemergence plant response
Outline: as §1

[4] = system: pigweed (Amaranthus retroflexus); experiment: Test B pre-/postemergence plant response
Outline: as §1

[5] = system: lambsquarters (Chenopodium album); experiment: Test B pre-/postemergence plant response
Outline: as §1

[6] = system: Surinam grass (Brachiaria decumbens); experiment: Test B pre-/postemergence plant response
Outline: as §1

soybean (Glycine max) = experiment: Test B pre-/postemergence plant response
Outline: as §1

[7] = system: wheat (Triticum aestivum); experiment: Test B pre-/postemergence plant response
Outline: as §1

[8] = system: canarygrass (Phalaris minor); experiment: Test B postemergence plant response
Outline: (§2)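 Plants grown in peat/vermiculite medium were sprayed postemergence at 2–18 cm height (1- to 4-leaf stage). After 13–15 days in the greenhouse, response was rated visually against untreated controls on a 0–100 scale (0 no effect, 100 complete control).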

[9] = system: chickweed (Stellaria media); experiment: Test B postemergence plant response
Outline: as §2

[10] = system: windgrass (Apera spica-venti); experiment: Test B postemergence plant response
Outline: as §2

[11] = 31 g ai/ha, postemergence, scale 0 to 100, 0 is no effect, 100 is complete control
[12] = 250 g ai/ha, Preemergence, 0 to 100 scale
[13] = Postemergence, 62 g ai/ha, scale 0 (no effect) to 100 (complete control), 13 to 15 days
[14] = Postemergence, 125 g ai/ha, visual rating after 13 to 15 days, scale 0 (no effect) to 100 (complete control)
[15] = Postemergence, 250 g ai/ha, scale 0 to 100 (0 no effect, 100 complete control)
[16] = Preemergence, 31 g ai/ha, scale 0 to 100 (0 no effect, 100 complete control)
[17] = Preemergence, 62 g ai/ha, scale 0 to 100 (0 no effect, 100 complete control)
[18] = Preemergence, 125 g ai/ha, scale 0 to 100, 0 no effect, 100 complete control

O=C1CCCC(O)=C1C(=O)c1cnc(-c2ccccc2)n(CC2CCCO2)c1=O (centres unmarked) [Compound 59]
45: Plant response rating, Kochia (kochia (Kochia scoparia); [14]) | Plant response rating, Kochia (kochia (Kochia scoparia); [17])
100: Plant response rating, Velvetleaf [2, 18] | Plant response rating, Cocklebur [3, 15] | Plant response rating, Pigweed [4, 13] | Plant response rating, Pigweed [4, 14] | Plant response rating, Pigweed [4, 15] | Plant response rating, Pigweed [4, 17] | Plant response rating, Pigweed [4, 18] | Plant response rating, Lambsquarters [5, 12] | Plant response rating, Lambsquarters [5, 14] | Plant response rating, Lambsquarters [5, 15] | Plant response rating, Lambsquarters [5, 17] | Plant response rating, Lambsquarters [5, 18] | Plant response rating, Chickweed [9, 15]
98: Plant response rating, Kochia (kochia (Kochia scoparia); [12]) | Plant response rating, Velvetleaf [2, 15] | Plant response rating, Lambsquarters [5, 13] | Plant response rating, Lambsquarters [5, 16] | Plant response rating, Chickweed [9, 13] | Plant response rating, Chickweed [9, 14]
35: Plant response rating, Blackgrass [1, 13]
75: Plant response rating, Kochia (kochia (Kochia scoparia); [15]) | Plant response rating, Velvetleaf [2, 16] | Plant response rating, Cocklebur [3, 12] | Plant response rating, Surinam Grass [6, 11] | Plant response rating, Surinam Grass [6, 17]
5: Plant response rating, Surinam Grass [6, 16] | Plant response rating, Wheat [7, 13] | Plant response rating, Canarygrass [8, 11] | Plant response rating, Canarygrass [8, 13]
60: Plant response rating, Blackgrass [1, 15] | Plant response rating, Kochia (kochia (Kochia scoparia); [18]) | Plant response rating, Wheat [7, 15] | Plant response rating, Windgrass [10, 13] | Plant response rating, Windgrass [10, 14]
55: Plant response rating, Oat, Wild (wild oat (Avena fatua); [14])
0: Plant response rating, Blackgrass [1, 16] | Plant response rating, Blackgrass [1, 17] | Plant response rating, Kochia (kochia (Kochia scoparia); [16]) | Plant response rating, Oat, Wild (wild oat (Avena fatua); [16]) | Plant response rating, Oat, Wild (wild oat (Avena fatua); [17]) | Plant response rating, Oat, Wild (wild oat (Avena fatua); [18]) | Plant response rating, Cocklebur [3, 16] | Plant response rating, Cocklebur [3, 17] | Plant response rating, Soybean (soybean (Glycine max); [17]) | Plant response rating, Soybean (soybean (Glycine max); [18]) | Plant response rating, Wheat [7, 11] | Plant response rating, Wheat [7, 16] | Plant response rating, Wheat [7, 17] | Plant response rating, Wheat [7, 18]
90: Plant response rating, Velvetleaf [2, 13] | Plant response rating, Velvetleaf [2, 17] | Plant response rating, Cocklebur [3, 14] | Plant response rating, Pigweed [4, 16] | Plant response rating, Surinam Grass [6, 14] | Plant response rating, Surinam Grass [6, 15] | Plant response rating, Soybean (soybean (Glycine max); [11])
20: Plant response rating, Windgrass [10, 11]
30: Plant response rating, Blackgrass [1, 18] | Plant response rating, Oat, Wild (wild oat (Avena fatua); [11])
80: Plant response rating, Oat, Wild (wild oat (Avena fatua); [15]) | Plant response rating, Surinam Grass [6, 13]
70: Plant response rating, Canarygrass [8, 15] | Plant response rating, Windgrass [10, 15]
40: Plant response rating, Blackgrass [1, 12] | Plant response rating, Blackgrass [1, 14] | Plant response rating, Oat, Wild (wild oat (Avena fatua); [13])
50: Plant response rating, Canarygrass [8, 14]
85: Plant response rating, Velvetleaf [2, 11] | Plant response rating, Cocklebur [3, 11] | Plant response rating, Cocklebur [3, 13] | Plant response rating, Surinam Grass [6, 18] | Plant response rating, Chickweed [9, 11]
10: Plant response rating, Blackgrass [1, 11] | Plant response rating, Kochia (kochia (Kochia scoparia); [13]) | Plant response rating, Cocklebur [3, 18] | Plant response rating, Wheat [7, 14]
95: Plant response rating, Velvetleaf [2, 14] | Plant response rating, Lambsquarters [5, 11] | Plant response rating, Soybean (soybean (Glycine max); [13]) | Plant response rating, Soybean (soybean (Glycine max); [14]) | Plant response rating, Soybean (soybean (Glycine max); [15])
